# Assay results taken from US10927117B2 (BEIGENE SWITZERLAND GMBH, priority 2016, dated 2021).
# pIC50: −log10 of the molar value. Entries after “also recorded” stand apart in the source; their conditions may differ.
# Key:
# [1] = tested on: Mino cells (MCL cell line); experiment: Tumor cell proliferation, CellTiter-Glo, Mino; assay type: cell-based; conditions: Homo sapiens, 144 h, 6-day exposure, mean of 3 independent assays, read-out: Potency IC50
# Procedure: 3 MCL cell lines (Rec-1, Mino and JEKO-1) and an ABC type diffuse large B-cell lymphoma cell line (TMD8) were used in this study. Cell lines were maintained in RPMI-1640 supplemented with 10% fetal bovine serum/FBS (Thermo Scientific); 100 units/ml penicillin (Gibco) and 0.1 mg/ml streptomycin (Gibco) and kept at 37° C. in a humidified atmosphere of 5% CO2 in air. Cell lines were reinstated from frozen stocks that were laid down within 30 passages from the original cells purchased.
# The growth-inhibitory activity of compounds in Rec-1, Mino, JEKO-1 and TMD-8 cells was determined using CellTiter-Glo luminescent cell viability assay (Promega). The number of cells seeded per well of a 96-well plate was optimized for each cell line to ensure logarithmic growth over 6 days treatment period. Cells were treated in triplicate with a 10-point dilution series. […] Mixture was mixed on an orbital shaker for 2 minutes to allow cell lysis, followed by 10 minutes incubation at room temperature to allow development and stabilization of luminescent signal, which corresponded to quantity of ATP and thus the quantity of metabolically active cells. Luminescent signal was measured using PHERAstar FS reader (BMG Labtech). IC50 values for cell viability were determined with GraphPad Prism software and were the mean of 3 independent assays.
# TMD-8 DLBCL xenografts = experiment: Efficacy study in TMD-8 xenograft model; assay type: in vivo, NOD/SCID mice
# Procedure: Animals were pre-treated with cyclophosphamide (prepared in saline, 150 mg/kg i.p.) and disulfiram (prepared in 0.8% Tween 80 in saline, 125 mg/kg p.o., one hour after each dose of cyclophosphamide) once daily for two days Animals were then inoculated with TMD-8 cells 24 hours after the second dose of cyclophosphamide. On the day of implantation, cell culture medium was replaced with fresh medium. Four hours later, media was removed and cells were collected as described above. Cells were re-suspended in cold (4° C.) PBS and same volume of matrigel (BD, Cat #356237) was added to give a final concentration of 2.5×10^7 cells/ml. Resuspended cells were placed on ice prior to inoculation The right axilla region of each mouse was cleaned with 75% ethanol prior to cell inoculation. Each animal was injected subcutaneously with 5×10^6 cells in 200 μl of cell suspension in the right front flank via a 26-gauge needle.
# For in vivo efficacy studies, starting from day 3 after cell inoculation, animals were randomly assigned into desired number of groups with 10 mice per group. […] Treatments were administered by oral gavage (p.o.) in a volume of 10 ml/kg body weight. Body weight was assessed immediately before dosing and volume dosed was adjusted accordingly. Tumor volume was measured twice weekly in two dimensions using a calliper (measureable from day 11 post inoculation in this study). Tumor volume was calculated using the formula: V=0.5×(a×b^2) where a and b are the long and short diameters of the tumor, respectively. Statistical analysis was conducted using the student T-test. P<0.05 was considered statistically significant. One individual was responsible for tumor measurement for the entire duration of the study. Body weights were also recorded twice weekly. Mice were also being monitored daily for clinical signs of toxicity for the duration of the study.
# [2] = tested on: systemic REC-1 MCL engrafts; experiment: Efficacy study in systemic REC-1 xenograft model; assay type: in vivo, NOD/SCID mice; conditions: different dose levels BID p.o., 71 days
# Procedure: Animals were pre-treated with cyclophosphamide (prepared in saline, 150 mpk i.p.) and disulfiram (prepared in 0.8% TW-80 in saline, 125 mpk p.o., one hour after each dose of cyclophosphamide) once daily for two days. Animals were then inoculated with REC-1 cells 24 hours after the second dose of cyclophosphamide. On the day of implantation, cell culture medium was replaced with fresh medium. Four hours later, media was removed and cells were collected as described above. Cells were re-suspended in cold (4° C.) PBS to give a final concentration of 1×10^8 cells/ml. Resuspended cells were placed on ice prior to implantation. Each animal was injected intravenously via tail vein with 1×10^7 cells in […] of cell suspension.
# For in vivo efficacy studies, starting from day 8 after cell inoculation, animals were randomly assigned into desired number of groups with 10 mice per group. […] Body weight was assessed immediately before dosing and volume dosed was adjusted accordingly. Body weight was recorded twice weekly (changed to three times per week from day 33). […] In the case of severe toxic effect, such as loss of movement, mice were euthanized and scored as death.
# For Data Analysis: Survival analysis was performed by Kaplan-Meier method. […] For each group, median survival time (MST), range of survival time (RST) with 95% confidence interval and increase in life-span (ILS) were calculated. […]
# [3] = Physical and long term stability test; assay type: physicochemical
# [4] = tested on: rituximab-induced antigen-dependent cell-mediated cytotoxicity (ADCC); experiment: Rituximab-induced ADCC inhibition; assay type: cell-based
# [5] = 25° C./60% RH for up to 24 months
# [6] = 40° C./75% RH for up to 6 months
smiles,measurement,setting,value
"C=CC(=O)N1CCC([C@@H]2CCNc3c(C(N)=O)c(-c4ccc(Oc5ccccc5)cc4)nn32)CC1 [Crystalline Form A, (S)-7-(1-acryloylpiperidin-4-yl)-2-(4-phenoxyphenyl)-4,5,6,7-tetra-hydropyrazolo[1,5-a]pyrimidine-3-carboxamide]",pIC50,[1],8.42
same,impact on animal body weight,TMD-8 DLBCL xenografts; all treatment groups,no significant impact on animal body weight
same,anti-tumor effects,"TMD-8 DLBCL xenografts; different dose levels BID p.o., 39 days",dose-dependent anti-tumor effects
same,anti-tumor activity at lowest dose tested,"TMD-8 DLBCL xenografts; lowest dose tested, BID p.o.",strong anti-tumor activity
same,anti-tumor activity (overall survival),[2],dose-dependent anti-tumor activity
same,crystal form change,[3]; [5],no crystal form and optical purity changes; also recorded: no crystal form change
same,optical purity change,[3]; [5],no crystal form and optical purity changes
same,chemical purity (% area) T0,[3]; 25° C./60% RH,99.2%
same,chemical purity (% area) T12,"[3]; 25° C./60% RH, T12",99.2%
same,crystal form change,[3]; [6],no crystal form and optical purity changes; also recorded: no crystal form change
same,optical purity change,[3]; [6],no crystal form and optical purity changes
same,chemical purity (% area) T0,[3]; 40° C./75% RH,99.1%
same,chemical purity (% area) T6,"[3]; 40° C./75% RH, T6",99.4%
same,crystal form change (XRPD),[3]; 80° C. for two days,no crystal form change
"C=CC(=O)N1CCC([C@@H]2CCNc3c(C(N)=O)c(-c4ccc(Oc5ccccc5)cc4)nn32)CC1 [Compound 1, (S)-7-(1-acryloylpiperidin-4-yl)-2-(4-phenoxyphenyl)-4,5,6,7-tetra-hydropyrazolo[1,5-a]pyrimidine-3-carboxamide]",inhibition of rituximab-induced ADCC compared with ibrutinib,[4],significantly less inhibition
same,time-dependent CYP inhibition potential,7 major human CYPs,unlikely to be time dependent CYP inhibitors
